{"source": "ChEMBL document CHEMBL4673243", "about": "“Discovery of 9-Cyclopropylethynyl-2-((S)-1-[1,4]dioxan-2-ylmethoxy)-6,7-dihydropyrimido[6,1-a]isoquinolin-4-one (GLPG1205), a Unique GPR84 Negative Allosteric Modulator Undergoing Evaluation in a Phase II Clinical Trial” (J Med Chem, 2020)", "key": {"[1]": {"assay": "in vivo", "conditions": "Balb/c, mouse, plasma, po, 3 mg/kg"}, "[2]": {"assay": "Plasma protein binding in rat at 5 uM measured after 4 hrs by LC-MS/MS analysis"}, "[3]": {"assay": "in vivo", "conditions": "Beagle, dog, po", "description": "Half life in Beagle dog at 2.5 mg/kg, po administered as single dose via gavage by LC-MS/MS analysis"}, "[4]": {"assay": "in vivo", "conditions": "Balb/cj, mouse, plasma, po, 10 mg/kg"}, "[5]": {"target": "Cytochrome P450 2C9 (Homo sapiens) (UniProt P11712)", "sequence (P11712 whole entry, looked up)": "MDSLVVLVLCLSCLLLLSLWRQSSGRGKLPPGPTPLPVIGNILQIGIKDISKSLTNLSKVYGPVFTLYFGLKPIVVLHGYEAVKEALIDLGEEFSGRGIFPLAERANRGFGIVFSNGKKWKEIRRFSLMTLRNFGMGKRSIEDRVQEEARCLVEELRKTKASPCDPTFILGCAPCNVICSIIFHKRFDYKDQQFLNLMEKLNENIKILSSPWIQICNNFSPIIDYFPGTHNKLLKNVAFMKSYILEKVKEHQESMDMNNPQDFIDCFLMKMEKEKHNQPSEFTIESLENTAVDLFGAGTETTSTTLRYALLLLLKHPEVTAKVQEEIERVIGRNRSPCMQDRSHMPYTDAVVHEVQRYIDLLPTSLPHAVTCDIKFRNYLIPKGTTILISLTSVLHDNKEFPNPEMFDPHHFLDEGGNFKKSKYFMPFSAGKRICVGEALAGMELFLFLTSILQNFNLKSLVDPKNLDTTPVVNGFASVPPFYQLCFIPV"}, "[6]": {"assay": "Inhibition of embelin-induced migration of human neutrophils preincubated for 30 mins followed by embelin addition and measured after 1 hr by ATPlite luminescence assay", "conditions": "Neutrophil"}, "[7]": {"species": "Mus musculus", "assay": "Antiinflammatory activity in Balb/cj mouse model of DSS-induced colitis assessed as minimum effective dose", "conditions": "read-out: MED"}, "[8]": {"assay": "in vivo", "conditions": "Balb/c, mouse, plasma, po, 10 mg/kg"}, "[9]": {"assay": "in vivo", "conditions": "Beagle, dog, po", "remark": "listed apart in the source"}, "[10]": {"assay": "Plasma protein binding in mouse at 5 uM measured after 4 hrs by LC-MS/MS analysis"}, "[11]": {"assay": "in vivo", "conditions": "male, Sprague-Dawley, rat, po"}, "[12]": {"target": "Cytochrome P450 2C19 (Homo sapiens, UniProt P33261)", "sequence (P33261 whole entry)": "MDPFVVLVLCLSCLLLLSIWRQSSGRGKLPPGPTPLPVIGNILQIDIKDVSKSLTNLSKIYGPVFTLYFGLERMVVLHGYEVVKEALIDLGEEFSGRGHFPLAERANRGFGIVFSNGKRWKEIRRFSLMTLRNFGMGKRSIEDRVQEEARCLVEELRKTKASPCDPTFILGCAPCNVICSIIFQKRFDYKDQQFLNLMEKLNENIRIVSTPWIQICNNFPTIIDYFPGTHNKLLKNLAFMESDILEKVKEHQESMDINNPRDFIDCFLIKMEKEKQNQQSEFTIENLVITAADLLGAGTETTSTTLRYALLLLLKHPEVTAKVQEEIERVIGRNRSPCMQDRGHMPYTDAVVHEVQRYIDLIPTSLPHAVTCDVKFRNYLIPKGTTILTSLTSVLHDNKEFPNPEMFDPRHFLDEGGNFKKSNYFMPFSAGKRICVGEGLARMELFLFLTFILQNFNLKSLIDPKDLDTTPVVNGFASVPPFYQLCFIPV", "assay": "Inhibition of CYP2C19 in human liver microsomes using probe substrate and in presence of co-factor preincubated for 20 mins followed by substrate addition by LC-MS/MS analysis"}, "[13]": {"assay": "in vivo", "conditions": "male, Sprague-Dawley, rat, po", "remark": "listed apart in the source", "description": "Half-life in male Sprague-Dawley rat at 2.5 mg/kg, po administered as single gavage dose using PEG-200/water formulation measured after 24 hrs by LC-MS/MS analysis"}, "[14]": {"assay": "in vivo", "conditions": "CD1, mouse, po, 5 mg/kg", "description": "Half-life in CD1 mouse at 5 mg/kg, po administered as single esophageal gavage dose post 12 hr fasting using PEG-200/water formulation measured after 24 hrs by LC-MS/MS analysis"}, "[15]": {"assay": "physchem", "conditions": "aqueous solution with 2% DMSO, pH 7.4"}, "[16]": {"target": "T1, Cytochrome P450 1A2 (Homo sapiens, UniProt P05177)", "T1 sequence (P05177 whole entry)": "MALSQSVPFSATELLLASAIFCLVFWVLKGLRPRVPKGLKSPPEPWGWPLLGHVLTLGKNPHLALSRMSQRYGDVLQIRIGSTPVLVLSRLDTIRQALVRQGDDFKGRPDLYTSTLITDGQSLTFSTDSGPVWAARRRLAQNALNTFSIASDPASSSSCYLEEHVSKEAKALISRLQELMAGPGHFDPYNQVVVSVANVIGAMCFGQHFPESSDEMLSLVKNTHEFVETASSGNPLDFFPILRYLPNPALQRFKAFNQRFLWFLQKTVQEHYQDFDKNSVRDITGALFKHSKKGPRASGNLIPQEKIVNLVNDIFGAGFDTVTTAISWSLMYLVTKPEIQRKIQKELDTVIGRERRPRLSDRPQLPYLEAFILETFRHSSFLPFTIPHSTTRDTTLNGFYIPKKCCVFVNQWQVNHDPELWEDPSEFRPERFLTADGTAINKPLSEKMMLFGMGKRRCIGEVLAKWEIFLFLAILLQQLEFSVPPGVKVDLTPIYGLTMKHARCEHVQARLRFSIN", "assay": "Inhibition of CYP1A2 in human liver microsomes using probe substrate and in presence of co-factor preincubated for 20 mins followed by substrate addition by LC-MS/MS analysis"}, "[17]": {"assay": "in vitro", "conditions": "dog, cryopreserved hepatocytes"}, "[18]": {"assay": "in vitro", "conditions": "rat, cryopreserved hepatocytes"}, "[19]": {"assay": "in vivo", "conditions": "Balb/c, mouse, plasma, po, 10 mg/kg", "remark": "listed apart in the source"}, "[20]": {"system": "Neutrophil", "assay": "Inhibition of dog neutrophil cell migration", "conditions": "Canis lupus familiaris"}, "[21]": {"assay": "in vitro", "conditions": "rat, liver microsomes"}, "[22]": {"assay": "Volume of distribution at steady state in Beagle dog at 0.5 mg/kg, iv administered as 10 mins infusion via catheter by LC-MS/MS analysis", "conditions": "in vivo"}, "[23]": {"assay": "in vitro", "conditions": "mouse, cryopreserved hepatocytes"}, "[24]": {"assay": "in vitro", "conditions": "mouse, liver microsomes"}, "[25]": {"target": "Cytochrome P450 3A4 (Homo sapiens, UniProt P08684)", "sequence (P08684 whole entry)": "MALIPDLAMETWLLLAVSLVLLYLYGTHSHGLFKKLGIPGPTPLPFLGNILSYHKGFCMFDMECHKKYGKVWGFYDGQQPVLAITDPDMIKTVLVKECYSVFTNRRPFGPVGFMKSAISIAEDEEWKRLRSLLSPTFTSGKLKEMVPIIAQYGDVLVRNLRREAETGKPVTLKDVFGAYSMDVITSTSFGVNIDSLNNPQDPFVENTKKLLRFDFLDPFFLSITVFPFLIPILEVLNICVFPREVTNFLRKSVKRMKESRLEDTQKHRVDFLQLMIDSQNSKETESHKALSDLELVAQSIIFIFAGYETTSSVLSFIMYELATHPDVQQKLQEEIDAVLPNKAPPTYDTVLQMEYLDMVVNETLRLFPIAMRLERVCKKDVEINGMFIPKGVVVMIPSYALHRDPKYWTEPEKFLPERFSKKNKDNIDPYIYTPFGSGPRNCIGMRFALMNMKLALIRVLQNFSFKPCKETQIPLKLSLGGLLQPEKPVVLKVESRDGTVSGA", "assay": "Time-dependent inhibition of CYP3A4 in human liver microsomes using testosterone as substrate and in presence of co-factor by LC-MS/MS analysis"}, "[26]": {"assay": "in vivo", "conditions": "CD1, mouse, po, 5 mg/kg", "remark": "listed apart in the source"}, "[27]": {"assay": "in vivo", "conditions": "male, Sprague-Dawley, rat, po", "remark": "listed apart in the source"}, "[28]": {"target": "Cytochrome P450 2D6 (Homo sapiens) (UniProt P10635)", "sequence (P10635 whole entry, looked up)": "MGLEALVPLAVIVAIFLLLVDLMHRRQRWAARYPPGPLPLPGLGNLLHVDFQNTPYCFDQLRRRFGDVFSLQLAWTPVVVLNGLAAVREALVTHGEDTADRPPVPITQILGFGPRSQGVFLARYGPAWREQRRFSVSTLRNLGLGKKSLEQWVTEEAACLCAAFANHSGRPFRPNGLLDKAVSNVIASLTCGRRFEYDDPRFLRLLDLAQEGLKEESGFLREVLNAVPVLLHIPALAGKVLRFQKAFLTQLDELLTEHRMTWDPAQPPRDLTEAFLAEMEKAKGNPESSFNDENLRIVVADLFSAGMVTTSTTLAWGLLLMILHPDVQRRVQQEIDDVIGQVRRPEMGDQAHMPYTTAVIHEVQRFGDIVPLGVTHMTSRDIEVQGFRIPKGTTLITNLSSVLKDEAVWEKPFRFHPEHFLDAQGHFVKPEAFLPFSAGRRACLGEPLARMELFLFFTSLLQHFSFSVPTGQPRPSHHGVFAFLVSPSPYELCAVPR"}, "[29]": {"assay": "Initial plasma concentration in CD1 mouse at 1 mg/kg, iv administered as single bolus dose using PEG-200/saline formulation measured after 24 hrs by LC-MS/MS analysis"}, "[30]": {"assay": "in vivo", "conditions": "CD1, mouse, po, 5 mg/kg", "remark": "listed apart in the source"}, "[31]": {"assay": "Half-life in plasma of Balb/c mouse model of DSS-induced colitis at 10 mg/kg, po administered using PEG-200/water formulation starting from day 1 to 11 measured by LC-MS analysis"}, "[32]": {"assay": "in vitro", "conditions": "mouse, cryopreserved hepatocytes", "remark": "listed apart in the source"}, "[33]": {"assay": "Apparent permeability from apical to basolateral in human Caco2 cells at 10 uM measured after 60 mins by lucifer yellow dye based LC-MS/MS analysis", "conditions": "Caco-2"}, "[34]": {"assay": "in vivo", "conditions": "male, Sprague-Dawley, rat, iv, 0.5 mg/kg"}, "[35]": {"assay": "Plasma protein binding in dog at 5 uM measured after 4 hrs by LC-MS/MS analysis"}, "[36]": {"assay": "Half-life in CD1 mouse at 1 mg/kg, iv administered as single bolus dose using PEG-200/saline formulation measured after 24 hrs by LC-MS/MS analysis", "conditions": "in vivo"}, "[37]": {"assay": "Clearance in CD1 mouse at 1 mg/kg, iv administered as single bolus dose using PEG-200/saline formulation measured after 24 hrs by LC-MS/MS analysis", "conditions": "in vivo"}, "[38]": {"assay": "Half-life in plasma of Balb/c mouse model of DSS-induced colitis at 3 mg/kg, po administered using PEG-200/water formulation starting from day 1 to 11 measured by LC-MS analysis"}, "[39]": {"assay": "Thermodynamic solubility of compound at pH 7.4", "conditions": "buffer"}, "[40]": {"assay": "in vitro", "conditions": "rat, cryopreserved hepatocytes", "remark": "listed apart in the source"}, "[41]": {"assay": "in vivo", "conditions": "Balb/c, mouse, plasma, po, 3 mg/kg", "remark": "listed apart in the source"}, "[42]": {"assay": "in vitro", "conditions": "human, cryopreserved hepatocytes"}, "[43]": {"assay": "in vivo", "conditions": "Beagle, dog, po", "remark": "listed apart in the source"}, "[44]": {"assay": "in vitro", "conditions": "dog, cryopreserved hepatocytes", "remark": "listed apart in the source"}, "[45]": {"assay": "in vivo", "conditions": "male, Sprague-Dawley, rat, po", "remark": "listed apart in the source"}}, "data": [{"compound": "O=c1nc(OC[C@@H]2COCCO2)cc2n1CCc1cc(C#CC3CC3)ccc1-2", "note": "[GLPG-1205]", "values": [{"measurement": "Tmax", "setting": "[1]", "result": 1, "unit": "h"}, {"measurement": "fraction unbound at 4 h, 5 µM", "setting": "[2]", "result": 0.023}, {"measurement": "half-life", "setting": "[3]", "result": 2, "unit": "h"}, {"measurement": "Cmax", "setting": "[4]", "result": 8140, "unit": "ng/mL"}, {"measurement": "IC50", "setting": "[5]", "result": 34.6, "unit": "µM"}, {"measurement": "IC50", "setting": "[6]", "result": 0.011, "unit": "µM"}, {"measurement": "minimal effective dose", "setting": "[7]", "result": 3, "unit": "mg/kg"}, {"measurement": "Tmax", "setting": "[8]", "result": 1, "unit": "h"}, {"measurement": "Cmax", "setting": "[9]", "result": 558, "unit": "ng/mL"}, {"measurement": "fraction unbound at 4 h, 5 µM", "setting": "[10]", "result": 0.022}, {"measurement": "Tmax at 24 h", "setting": "[11]", "result": 1.5, "unit": "h"}, {"measurement": "IC50", "setting": "[12]", "result": "> 100", "unit": "µM"}, {"measurement": "half-life at 24 h", "setting": "[13]", "result": 1.3, "unit": "h"}, {"measurement": "half-life at 24 h", "setting": "[14]", "result": 1.9, "unit": "h"}, {"measurement": "solubility", "setting": "[15]", "result": 113, "unit": "µg/mL"}, {"measurement": "IC50", "setting": "[16]", "result": "> 100", "unit": "µM"}, {"measurement": "half-life at 1 µM", "setting": "[17]", "result": "> 3.33", "unit": "h"}, {"measurement": "half-life at 1 µM", "setting": "[18]", "result": "> 3.33", "unit": "h"}, {"measurement": "AUC(0-t) at 24 h", "setting": "[19]", "result": 50400, "unit": "ng·h/mL"}, {"measurement": "IC50", "setting": "[20]", "result": 0.075, "unit": "µM"}, {"measurement": "CLint scaled at 0.5 h, 1 µM", "setting": "[21]", "result": 66.7, "unit": "mL/min/kg"}, {"measurement": "Vd at […]", "setting": "[22]", "result": 2, "unit": "L/kg"}, {"measurement": "CLint scaled at 1 µM", "setting": "[23]", "result": "< 72.8", "unit": "mL/min/kg"}, {"measurement": "CLint scaled at 0.5 h, 1 µM", "setting": "[24]", "result": 133, "unit": "mL/min/kg"}, {"measurement": "IC50", "setting": "[25]", "result": "> 50", "unit": "µM"}, {"measurement": "AUC(0-t) at 24 h", "setting": "[26]", "result": 15300, "unit": "ng·h/mL"}, {"measurement": "Cmax at 24 h", "setting": "[27]", "result": 1160, "unit": "ng/mL"}, {"measurement": "IC50", "setting": "[28]", "result": "> 100", "unit": "µM"}, {"measurement": "C0 at 24 h", "setting": "[29]", "result": 1230, "unit": "ng/mL"}, {"measurement": "Cmax at 24 h", "setting": "[30]", "result": 4590, "unit": "ng/mL"}, {"measurement": "half-life", "setting": "[31]", "result": 2.3, "unit": "h"}, {"measurement": "half-life at 1 µM", "setting": "[32]", "result": "> 3.33", "unit": "h"}, {"measurement": "Papp A→B at 1 h, 10 µM", "setting": "[33]", "result": 41.9, "unit": "×10⁻⁶ cm/s"}, {"measurement": "AUC(0-t) at 24 h", "setting": "[34]", "result": 710, "unit": "ng·h/mL"}, {"measurement": "fraction unbound at 4 h, 5 µM", "setting": "[35]", "result": 0.065}, {"measurement": "half-life at 24 h", "setting": "[36]", "result": 0.6, "unit": "h"}, {"measurement": "clearance at 24 h", "setting": "[37]", "result": 15, "unit": "mL/min/kg"}, {"measurement": "half-life", "setting": "[38]", "result": 2.9, "unit": "h"}, {"measurement": "solubility thermodynamic", "setting": "[39]", "result": 7.75, "unit": "µg/mL"}, {"measurement": "CLint scaled at 1 µM", "setting": "[40]", "result": "< 33.3", "unit": "mL/min/kg"}, {"measurement": "Cmax", "setting": "[41]", "result": 1840, "unit": "ng/mL"}, {"measurement": "half-life at 1 µM", "setting": "[42]", "result": "> 3.33", "unit": "h"}, {"measurement": "bioavailability", "setting": "[43]", "result": "> 100", "unit": "%"}, {"measurement": "CLint scaled at 1 µM", "setting": "[44]", "result": "< 24.2", "unit": "mL/min/kg"}, {"measurement": "bioavailability at 24 h", "setting": "[45]", "result": "> 100", "unit": "%"}]}]}
